Measured values taken from US10364245B2 (CHIESI FARMACEUTICI S.p.A., priority 2017, dated 2019).
Where a name gives a salt, the structure may show the parent alone.

Key:
[1] = molecular target: T1, p38 alpha (Homo sapiens, UniProt Q16539); assay: P38 alpha enzyme inhibition assay (Alphascreen kinase activity assay); format: biochemical; conditions: 100 pM p38 alpha, 2 hours preincubation at 25° C., 250 μM ATP, ATF-2 fusion protein; read-out: p38α inhibition
T1 construct: purchased Invitrogen PV3304
T1 sequence (Q16539 whole entry, the tested form may be a part): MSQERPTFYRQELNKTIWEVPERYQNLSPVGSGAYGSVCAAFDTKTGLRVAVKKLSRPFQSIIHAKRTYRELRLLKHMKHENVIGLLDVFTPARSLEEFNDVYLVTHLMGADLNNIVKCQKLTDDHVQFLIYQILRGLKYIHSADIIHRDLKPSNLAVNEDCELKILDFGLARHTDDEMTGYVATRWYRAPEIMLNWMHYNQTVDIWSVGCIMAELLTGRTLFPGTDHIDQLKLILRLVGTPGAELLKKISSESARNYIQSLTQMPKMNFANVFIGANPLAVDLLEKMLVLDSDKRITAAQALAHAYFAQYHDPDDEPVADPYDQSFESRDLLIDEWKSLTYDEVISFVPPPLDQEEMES
Method in brief: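 100 pM p38 alpha preincubated 2 h at 25 °C with compound and 0.3 μg/ml ATF-2 fusion substrate (HEPES pH 7.5, MgCl2, 1% DMSO). Reaction started with 250 μM ATP, run 1 h at 25 °C, stopped with EDTA; phospho-ATF2 detected by AlphaScreen luminescence. IC50 from concentration-response curves.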

[2] = tested on: Peripheral Blood Mononuclear Cells (PBMCs), TNFα release; assay: LPS-stimulated PBMC TNFα release assay; format: cell-based; conditions: human PBMC, LPS (10 ng/ml), 18 h, compound 1 h before LPS; read-out: LPS-stimulated PBMC TNFα release inhibition
Method in brief: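 Human PBMCs from healthy donors, serum-starved 3 h, then pre-incubated 1 h at 37 °C with compound in 1% FBS medium before LPS (10 ng/ml) for 18 h. Supernatant TNFα measured by MSD; IC50 from dose-response as % inhibition of control, at least three experiments.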

SMILES | IC50 [1] | IC50 [2]
CC[C@H](C)c1nnc2ccc(O[C@@H]3CC[C@H](NC(=O)Nc4cc(C(C)(C)C)nc(C(=O)NCC(C)(C)N(C)C)n4)c4ccccc43)cn12 [Example 8, 4-(tert-Butyl)-6-(3-((1S,4R)-4-((3-((S)-sec-butyl)-[1,2,4]triazolo[4,3-a]pyridin-6-yl)oxy)-1,2,3,4-tetrahydronaphthalen-1-yl)ureido)-N-(2-(dimethylamino)-2-methylpropyl)pyrimidine-2-carboxamide] | < 1 nM | 1 to 5 nM
CCC(CC)c1nnc2ccc(O[C@@H]3CC[C@H](NC(=O)Nc4cc(C(C)(C)C)nc(C(=O)NCC(C)(C)N5CCN(C)CC5)n4)c4ccccc43)cn12 [Example 173, 4-(tert-butyl)-N-(2-methyl-2-(4-methylpiperazin-1-yl)propyl)-6-(3-((1S,4R)-4-((3-(pentan-3-yl)-[1,2,4]triazolo[4,3-a]pyridin-6-yl)oxy)-1,2,3,4-tetrahydronaphthalen-1-yl)ureido)pyrimidine-2-carboxamide formate salt] | < 1 nM | 1 to 5 nM
CC(C)(C)c1cc(NC(=O)N[C@H]2CC[C@@H](Oc3ccc4nnc(C(C)(C)C)n4c3)c3ccccc32)nc(C(=O)NCCN2CCCOCC2)c1 [Example 209, N-(2-(1,4-oxazepan-4-yl)ethyl)-4-(tert-butyl)-6-(3-((1S,4R)-4-((3-(tert-butyl)-[1,2,4]triazolo[4,3-a]pyridin-6-yl)oxy)-1,2,3,4-tetrahydronaphthalen-1-yl)ureido)picolinamide formate salt] | < 1 nM | < 1 nM
CC(C)(C)c1cc(NC(=O)N[C@H]2CC[C@@H](Oc3ccc4nnc(C(C)(C)C)n4c3)c3ccccc32)nc(C(=O)NCCCN2CCOCC2)n1 [Example 80, 4-(tert-butyl)-6-(3-((1S,4R)-4-((3-(tert-butyl)-[1,2,4]triazolo[4,3-a]pyridin-6-yl)oxy)-1,2,3,4-tetrahydronaphthalen-1-yl)ureido)-N-(3-morpholinopropyl)-pyrimidine-2-carboxamide] | 1 to 10 nM | 1 to 5 nM
CC(C)Cc1nnc2ccc(O[C@@H]3CC[C@H](NC(=O)Nc4cc(C(C)(C)C)nc(C(=O)NCCO)n4)c4ccccc43)cn12 [Example 60, 4-(tert-Butyl)-N-(2-hydroxyethyl)-6-(3-((1S,4R)-4-((3-isobutyl-[1,2,4]triazolo[4,3-a]pyridin-6-yl)oxy)-1,2,3,4-tetrahydronaphthalen-1-yl)ureido)pyrimidine-2-carboxamide] | < 1 nM | 1 to 5 nM
COCC(C)(C)c1nnc2ccc(O[C@@H]3CC[C@H](NC(=O)Nc4cc(C(C)(C)C)nc(C(=O)NCC(C)(C)N5CC(OC)C5)n4)c4ccccc43)cn12 [Example 171, 4-(tert-butyl)-6-(3-((1S,4R)-4-((3-(1-methoxy-2-methylpropan-2-yl)-[1,2,4]triazolo[4,3-a]pyridin-6-yl)oxy)-1,2,3,4-tetrahydronaphthalen-1-yl)ureido)-N-(2-(3-methoxyazetidin-1-yl)-2-methylpropyl)pyrimidine-2-carboxamide] | 1 to 10 nM | 1 to 5 nM
CC(C)(C)c1cc(NC(=O)N[C@H]2CC[C@@H](Oc3ccc4nnc(C(C)(C)C)n4c3)c3ccccc32)nc(C(=O)N[C@H]2C[C@H](CO)C2)n1 [Example 83, 4-(tert-butyl)-6-(3-((1S,4R)-4-((3-(tert-butyl)-[1,2,4]triazolo[4,3-a]pyridin-6-yl)oxy)-1,2,3,4-tetrahydronaphthalen-1-yl)ureido)-N-((1s,3R)-3-(hydroxymethyl)-cyclobutyl)pyrimidine-2-carboxamide] | < 1 nM | 1 to 5 nM
CN1CCC[C@@]1(C)c1nnc2ccc(O[C@@H]3CC[C@H](NC(=O)Nc4cc(C(C)(C)C)ncn4)c4ccccc43)cn12 [Example 14, 1-(6-(tert-Butyl)pyrimidin-4-yl)-3-((1S,4R)-4-((3-((S)-1,2-dimethylpyrrolidin-2-yl)-[1,2,4]triazolo[4,3-a]pyridin-6-yl)oxy)-1,2,3,4-tetrahydronaphthalen-1-yl)urea] | < 1 nM | < 1 nM
C[C@H]1CCCCN1c1nnc2ccc(O[C@@H]3CC[C@H](NC(=O)Nc4cc(C(C)(C)C)ncn4)c4ccccc43)cn12 [Example 45, 1-(6-(tert-Butyl)pyrimidin-4-yl)-3-((1S,4R)-4-((3-((S)-2-methylpiperidin-1-yl)-[1,2,4]triazolo[4,3-a]pyridin-6-yl)oxy)-1,2,3,4-tetrahydronaphthalen-1-yl)urea] | < 1 nM | 1 to 5 nM
CN(C)CCNC(=O)c1cc(NC(=O)N[C@H]2CC[C@@H](Oc3ccc4nnc([C@]5(C)CCCN5C)n4c3)c3ccccc32)cc(C(C)(C)C)n1 [Example 62, 6-(tert-Butyl)-N-(2-(dimethylamino)ethyl)-4-(3-((1S,4R)-4-((3-((S)-1,2-dimethylpyrrolidin-2-yl)-[1,2,4]triazolo[4,3-a]pyridin-6-yl)oxy)-1,2,3,4-tetrahydronaphthalen-1-yl)ureido)picolinamide] | < 1 nM | > 5 nM
C[C@@H]1CCC[C@H](C)N1c1nnc2ccc(O[C@@H]3CC[C@H](NC(=O)Nc4cc(C(C)(C)C)nc(C(=O)NCCO)n4)c4ccccc43)cn12 [Example 19, 4-(tert-Butyl)-6-(3-((1S,4R)-4-((3-((2R,6S)-2,6-dimethylpiperidin-1-yl)-[1,2,4]triazolo[4,3-a]pyridin-6-yl)oxy)-1,2,3,4-tetrahydronaphthalen-1-yl)ureido)-N-(2-hydroxyethyl)pyrimidine-2-carboxamide] | < 1 nM | < 1 nM
CC(C)(C)c1cc(NC(=O)N[C@H]2CC[C@@H](Oc3ccc4nnc(C(C)(C)C)n4c3)c3ccccc32)nc(C(=O)NCCN2CCC(O)CC2)n1 [Example 108, 4-(tert-butyl)-6-(3-((1S,4R)-4-((3-(tert-butyl)-[1,2,4]triazolo[4,3-a]pyridin-6-yl)oxy)-1,2,3,4-tetrahydronaphthalen-1-yl)ureido)-N-(2-(4-hydroxypiperidin-1-yl)ethyl)pyrimidine-2-carboxamide] | < 1 nM | > 5 nM
CN(CCO)CCNC(=O)c1nc(NC(=O)N[C@H]2CC[C@@H](Oc3ccc4nnc(C5(C)CCCC5)n4c3)c3ccccc32)cc(C(C)(C)C)n1 [Example 181, 4-(tert-butyl)-N-(2-((2-hydroxyethyl)(methyl)amino)ethyl)-6-(3-((1S,4R)-4-((3-(1-methylcyclopentyl)-[1,2,4]triazolo[4,3-a]pyridin-6-yl)oxy)-1,2,3,4-tetrahydronaphthalen-1-yl)ureido)pyrimidine-2-carboxamide] | < 1 nM | 1 to 5 nM
CCC(C)(C)c1nnc2ccc(O[C@@H]3CC[C@H](NC(=O)Nc4cc(C(=O)NCCN(C)C)nc(C(C)(C)C)c4)c4ccccc43)cn12 [Example 206, 6-(tert-butyl)-N-(2-(dimethylamino)ethyl)-4-(3-((1S,4R)-4-((3-(tert-pentyl)-[1,2,4]triazolo[4,3-a]pyridin-6-yl)oxy)-1,2,3,4-tetrahydronaphthalen-1-yl)ureido)picolinamide] | < 1 nM | 1 to 5 nM
COCC(C)(C)c1nnc2ccc(O[C@@H]3CC[C@H](NC(=O)Nc4cc(C(C)(C)C)nc(C(=O)NCC(C)(C)N5CCN(C)CC5)n4)c4ccccc43)cn12 [Example 155, 4-(tert-butyl)-6-(3-((1S,4R)-4-((3-(1-methoxy-2-methylpropan-2-yl)-[1,2,4]triazolo[4,3-a]pyridin-6-yl)oxy)-1,2,3,4-tetrahydronaphthalen-1-yl)ureido)-N-(2-methyl-2-(4-methylpiperazin-1-yl)propyl)pyrimidine-2-carboxamide] | < 1 nM | > 5 nM
CCN(C)CCNC(=O)c1cc(NC(=O)N[C@H]2CC[C@@H](Oc3ccc4nnc(N(CC)CC)n4c3)c3ccccc32)cc(C(C)(C)C)n1 [Example 205, 6-(tert-Butyl)-4-(3-((1S,4R)-4-((3-(diethylamino)-[1,2,4]triazolo[4,3-a]pyridin-6-yl)oxy)-1,2,3,4-tetra-hydronaphthalen-1-yl)ureido)-N-(2-(ethyl(methyl)amino)-ethyl)picolinamide formate salt] | < 1 nM | 1 to 5 nM
CC(C)c1nnc2ccc(O[C@@H]3CC[C@H](NC(=O)Nc4cc(C(C)(C)C)nc(C(=O)NCCN5CCOCC5)n4)c4ccccc43)cn12 [Example 66, 4-(tert-butyl)-6-(3-((1S,4R)-4-((3-isopropyl-[1,2,4]triazolo[4,3-a]pyridin-6-yl)oxy)-1,2,3,4-tetrahydronaphthalen-1-yl)ureido)-N-(2-morpholinoethyl)pyrimidine-2-carboxamide] | 1 to 10 nM | > 5 nM
CC(C)c1nnc2ccc(O[C@@H]3CC[C@H](NC(=O)Nc4cc(C(C)(C)C)nc(C(=O)NCCO)n4)c4ccccc43)cn12 [Example 65, 4-(tert-butyl)-N-(2-hydroxyethyl)-6-(3-((1S,4R)-4-((3-isopropyl-[1,2,4]triazolo[4,3-a]pyridin-6-yl)oxy)-1,2,3,4-tetrahydronaphthalen-1-yl)ureido)pyrimidine-2-carboxamide] | < 1 nM | > 5 nM
CN(C)CCCNC(=O)c1nc(NC(=O)N[C@H]2CC[C@@H](Oc3ccc4nnc(C(C)(C)C)n4c3)c3ccccc32)cc(C(C)(C)C)n1 [Example 118, 4-(tert-butyl)-6-(3-((1S,4R)-4-((3-(tert-butyl)-[1,2,4]triazolo[4,3-a]pyridin-6-yl)oxy)-1,2,3,4-tetrahydronaphthalen-1-yl)ureido)-N-(3-(dimethylamino)-propyl)pyrimidine-2-carboxamide] | 1 to 10 nM | 1 to 5 nM
